In patent publication US20250288599A1, “PHARMACEUTICAL COMPOSITIONS AND METHODS FOR TREATING OSTEOARTHRITIS” (INSIGNIA PHARMACEUTICALS, LLC, priority 2024, published 2025):

Columns and labels:
[1] = test system: Col2a1 expression in dedifferentiated osteoarthritic chondrocytes; assay: Col2a1 relative expression in high passage osteoarthritic chondrocyte monolayer model with TGF-β; type: cell-based, human; conditions: 14 days in culture with TGF-β; 28 mM Lac, 100 mm LA
Procedure: (§1) These compounds were tested in a high passage osteoarthritic chondrocyte monolayer model, alone or in combination with other agents, for both transcriptional regulation of standard markers and IL-1β-induced PGE2 production.

[2] = test system: MMP12 expression in normal human dermal fibroblasts (NHDF); assay: MMP12 mRNA in NHDF activated with IL-1β, 24 h, qRT-PCR; type: cell-based; conditions: IL-1β 0.1 ng/ml, 100 mM Lac or 0.1 mM Dxp, IL-1β alone 17.8±12.3
Procedure: (§2) After 24 hours, total mRNA was isolated and delta-delta Cp relative expression was calculated versus untreated medium controls, normalized to the housekeeping gene, GAPDH. Statistical analysis was then conducted via t-test.

[3] = test system: SOX9 expression in dedifferentiated osteoarthritic chondrocytes; assay: SOX9 relative expression in high passage osteoarthritic chondrocyte monolayer model with TGF-β; type: cell-based, human; conditions: 14 days in culture with TGF-β; 28 mM Lac, 100 mm LA
Procedure: as §1

[4] = test system: Elastin (ELN) expression in normal human dermal fibroblasts (NHDF); assay: ELN mRNA in NHDF activated with TGF-β1 or IL-1β, 24 h, qRT-PCR; type: cell-based; conditions: 100 mM Lac or 0.1 mM Dxp
Procedure: as §2

[5] = test system: Col2a1 expression in human osteoarthritic chondrocytes; assay: Col2a1 relative expression in human osteoarthritic chondrocytes (passage 5) cultured 27 days; type: cell-based; conditions: 50 micromolar Dec, 0.1 μM Dxp, 100 mM Lac
Procedure: To evaluate the biological ramifications of the SOX9 to RUNX2 regulation mentioned above, delta-delta relative gene expression was assessed against medium controls, with normalization to GAPDH for both Col2a1 and Col1a1 in the samples tested with reference to Example 15. […] Moreover, treatment with 100 mM Lac increased collagen expression (49.88±4.31 and 1.63±0.20 for Col2a1 and Col1a1, respectively; FIGS. 51 and 52).

[6] = test system: MMP3 expression in normal human dermal fibroblasts (NHDF); assay: MMP3 mRNA in NHDF activated with IL-1β, 24 h, qRT-PCR; type: cell-based; conditions: IL-1β 0.1 ng/ml, 100 mM Lac or 0.1 mM Dxp, IL-1β alone 3.5±1.7
Procedure: as §2

CC(O)C(=O)O (stereo not shown) [Lac, lactate]
increase in Col2a1 compared to controls [1]: 30 fold | relative expression of MMP12 [2]: 2.2±0.8 | increase in SOX9 transcription [3]: 2 fold | relative expression of ELN ([4]; IL-1β 0.1 ng/ml, IL-1β alone 18±12, n=3): 0.86±3 | relative expression of ELN ([4]; TGF-β1 10 ng/ml, TGF-β1 alone 110±35, n=3): 45+36 | Col2a1 delta-delta relative gene expression [5]: 49.88±4.31 fold | relative expression of MMP3 [6]: 1.5±0.8
